# Patent US12668599B2, “Heterobifunctional compounds and methods of treating disease” (Halda Therapeutics OpCo, Inc., priority 2023, dated 2026)
# Experiments:
# VCaP cells = assay: Cellular growth inhibition assay for VCaP cells (CellTiter-Glo 2.0, 72 hours); type: cell-based, human; conditions: CellTiter-Glo 2.0
# [1] = test system: T-Rex 293 cell line SC3 cells having increased expression of androgen receptor protein due to exposure to doxycycline; assay: Cellular growth inhibition, T-Rex 293 SC3 cells with doxycycline-induced androgen receptor (CellTiter-Glo 2.0, 72 hours); type: cell-based; conditions: T-Rex 293 SC3 cells with 10 ng/ml doxycycline (increased androgen receptor expression), 72 hours, CellTiter-Glo 2.0
# [2] = test system: T-Rex 293 cell line SC3 cells lacking increased expression of androgen receptor protein; assay: Cellular growth inhibition, T-Rex 293 SC3 cells without doxycycline (CellTiter-Glo 2.0, 72 hours); type: cell-based; conditions: T-Rex 293 SC3 cells not exposed to doxycycline (no increased androgen receptor expression)
"GI50 (VCaP cells; Homo sapiens, VCaP, 72 h)",GI50 (VCaP cells; 72 hours),Compound,GI50 [1],GI50 ([2]; 72 h),GI50 [2]
,< 500 nM,COc1cc(O[C@H]2CC[C@H](NC(=O)c3ccc(N4CCC5(CCN(c6ccc(C7=N[C@@H](C)c8nnc(C)n8-c8sc(C)c(C)c87)cc6F)C5)C4)nn3)CC2)ccc1C#N (stereo partly drawn) [Compound I-80],< 500 nM,,< 500 nM
< 500 nM,,"COc1cc(O[C@H]2CC[C@H](NC(=O)c3ccc(N4CCC5(CCC(c6ccc(C7=N[C@@H](C)c8nnc(C)n8-c8sc(C)c(C)c87)cn6)CC5)C4)nn3)CC2)ccc1C#N (stereo partly drawn) [Compound I-86, N-[4-(4-cyano-3-methoxy-phenoxy)cyclohexyl]-6-[8-[5-[(9S)-4,5,9,13-tetramethyl-3-thia-1,8,11,12-tetrazatricyclo[8.3.0.0^2,6]trideca-2 (6),4,7,10,12-pentaen-7-yl]-2-pyridyl]-2-azaspiro[4.5]decan-2-yl]pyridazine-3-carboxamide]",< 500 nM,,> 3000 nM
< 500 nM,,COc1cc(O[C@H]2CC[C@H](NC(=O)c3ccc(N4CC(C)(C)C5(CCN(c6ccc(C7=N[C@@H](C)c8nnc(C)n8-c8sc(C)c(C)c87)cc6)CC5)C4)nn3)CC2)ccc1C#N [Compound I-120],< 500 nM,< 500 nM,
,< 500 nM,COc1cc(O[C@H]2CC[C@H](NC(=O)c3ccc(N4CCC5(CCN(c6ccc(C7=NC(Cc8ncco8)c8nnc(C)n8-c8sc(C)c(C)c87)cc6C(F)(F)F)CC5)C4)nn3)CC2)ccc1C#N (stereo partly drawn) [Compound I-129],< 500 nM,,< 500 nM
,< 500 nM,"COc1cc(O[C@H]2CC[C@H](NC(=O)c3ccc(N4CC5(CC(C#Cc6ccc(C7=NC(Cc8ncco8)c8nnc(C)n8-c8sc(C)c(C)c87)cc6F)C5)C4)nn3)CC2)ccc1C#N (single isomer, unassigned) [Compound I-127]",< 500 nM,,< 500 nM
< 500 nM,,COc1cc(O[C@H]2CC[C@H](NC(=O)c3ccc(N4CCC5(CCN(c6ccc(C7=N[C@@H](C)c8nnc(C)n8-c8sc(C)c(C)c87)c(Cl)c6)CC5)C4)nn3)CC2)ccc1C#N [Compound I-74],< 500 nM,> 3000 nM,
< 500 nM,,COc1cc(O[C@H]2CC[C@H](NC(=O)c3ccc(N4CCC5(CCC(c6ccc(C7=N[C@@H](C)c8nnc(C)n8-c8sc(C)c(C)c87)cc6Cl)CC5)C4)nn3)CC2)ccc1C#N (stereo partly drawn) [Compound I-84],< 500 nM,,< 500 nM
< 500 nM,,"COc1cc(O[C@H]2C(C)(C)[C@H](NC(=O)c3cnc(N4CCC5(CC4)CC(Oc4ccc(C6=N[C@@H](Cc7ncco7)c7nnc(C)n7-c7sc(CO)c(C)c76)cc4)C5)nc3)C2(C)C)ccc1C#N [III-2, N-[(1r,3r)-3-(4-cyano-3-methoxy-phenoxy)-2,2,4,4-tetramethyl-cyclobutyl]-2-[2-[4-[(9S)-4-(hydroxymethyl)-5,13-dimethyl-9-(oxazol-2-ylmethyl)-3-thia-1,8,11,12-tetrazatricyclo[8.3.0.0^2,6]trideca-2 (6),4,7,10,12-pentaen-7-yl]phenoxy]-7-azaspiro[3.5]nonan-7-yl]pyrimidine-5-carboxamide]",< 500 nM,< 500 nM,
< 500 nM,,COc1cc(O[C@H]2CC[C@H](NC(=O)c3ccc(N4CC5(CC(C#Cc6ccc(C7=NC(Cc8ncco8)c8nnc(C)n8-c8sc(C)c(C)c87)c(F)c6)C5)C4)nn3)CC2)ccc1C#N (stereo partly drawn) [Compound I-112],< 500 nM,> 3000 nM,
< 500 nM,,"COc1cc(O[C@H]2C(C)(C)[C@@H](NC(=O)c3cnc(N4CCC5(CC4)CC(Oc4ccc(C6=NC(Cc7ncco7)c7nnc(C)n7-c7sc(C)c(C)c76)cc4)C5)nc3)C2(C)C)ccc1C#N (stereo partly drawn) [III-3, N-[(1r,3s)-3-(4-cyano-3-methoxy-phenoxy)-2,2,4,4-tetramethyl-cyclobutyl]-2-[2-[4-[4,5,13-trimethyl-9-(oxazol-2-ylmethyl)-3-thia-1,8,11,12-tetrazatricyclo[8.3.0.0^2,6]trideca-2 (6),4,7,10,12-pentaen-7-yl]phenoxy]-7-azaspiro[3.5]nonan-7-yl]pyrimidine-5-carboxamide]",< 500 nM,< 500 nM,
< 500 nM,,COc1cc(O[C@H]2CC[C@H](NC(=O)c3ccc(N4CCC5(CCN(c6ccc(C7=N[C@@H](C)c8nnc(C)n8-c8sc(C)c(C)c87)cc6)CC5(F)F)C4)nn3)CC2)ccc1C#N (stereo partly drawn) [Compound I-113],< 500 nM,< 500 nM,
< 500 nM,,COc1cc(O[C@H]2CC[C@H](NC(=O)c3ccc(N4CCC5(CCC(c6ccc(C7=N[C@@H](C)c8nnc(C)n8-c8sc(C)c(C)c87)nc6)CC5)C4)nn3)CC2)ccc1C#N (stereo partly drawn) [Compound I-88],< 500 nM,< 500 nM,

# The remaining lines, values behind:
Compound,"GI50 (VCaP cells; Homo sapiens, VCaP, 72 h)",GI50 (VCaP cells; 72 hours),GI50 [1],GI50 ([2]; 72 h),GI50 [2]
"COc1cc(O[C@H]2CC[C@H](NC(=O)c3ccc(N4CCC5(CCN(c6ccc(C7=N[C@@H](C)c8nnc(C)n8-c8sc(C)c(C)c87)cc6C)CC5)C4)nn3)CC2)ccc1C#N [Compound I-46, N-[4-(4-cyano-3-methoxy-phenoxy)cyclohexyl]-6-[8-[2-methyl-4-[(9S)-4,5,9,13-tetramethyl-3-thia-1,8,11,12-tetrazatricyclo[8.3.0.0^2,6]trideca-2 (6),4,7,10,12-pentaen-7-yl]phenyl]-2,8-diazaspiro[4.5]decan-2-yl]pyridazine-3-carboxamide]",< 500 nM,,< 500 nM,< 500 nM,
"COc1cc(O[C@H]2CC[C@H](NC(=O)c3ccc(N4CCC5(CCC(c6ccc(C7=N[C@@H](C)c8nnc(C)n8-c8sc(C)c(C)c87)c(F)c6)CC5)C4)nn3)CC2)ccc1C#N (single isomer, unassigned) [Compound I-58]",< 500 nM,,< 500 nM,< 500 nM,
COc1cc(O[C@H]2CC[C@H](NC(=O)c3ccc(N4CCC5(CCC(Oc6ccc(C7=N[C@@H](C)c8nnc(C)n8-c8sc(C)c(C)c87)cc6)C5)C4)nn3)CC2)ccc1C#N (stereo partly drawn) [Compound I-52],,< 500 nM,< 500 nM,,< 500 nM
"COc1cc(O[C@H]2CC[C@H](NC(=O)c3cnc(N4CCC5(CCN(c6ccc(C7=N[C@@H](C)c8nnc(C)n8-c8sc(C)c(C)c87)cc6)CC5)C4)nc3)CC2)ccc1C#N [Compound I-37, N-((1r,4r)-4-(4-cyano-3-methoxyphenoxy)cyclohexyl)-2-(8-(4-((S)-2,3,6,9-tetramethyl-6H-thieno[3,2-f][1,2,4]triazolo[4,3-a][1,4]diazepin-4-yl)phenyl)-2,8-diazaspiro[4.5]decan-2-yl)pyrimidine-5-carboxamide]",< 500 nM,,< 500 nM,< 500 nM,
COc1cc(O[C@H]2CC[C@H](NC(=O)c3ccc(N4CCC5(CCN(c6ccc(C7=N[C@@H](C)c8nnc(C)n8-c8sc(C)c(C)c87)cc6)CC5)C4)nn3)CC2)ccc1C#N [Compound I-70],< 500 nM,,< 500 nM,< 500 nM,
COc1cc(O[C@H]2CC[C@H](NC(=O)c3ccc(N4CCC5(CCC(c6ccc(C7=N[C@@H](C)c8nnc(C)n8-c8sc(C)c(C)c87)c(OC)c6)CC5)C4)nn3)CC2)ccc1C#N (stereo partly drawn) [Compound I-69],,< 500 nM,< 500 nM,,< 500 nM
COc1cc(O[C@H]2CC[C@H](NC(=O)c3ccc(N4CCC5(CCC(c6ccc(C7=N[C@@H](C)c8nnc(C)n8-c8sc(C)c(C)c87)c(OC)c6)CC5)C4)nn3)CC2)ccc1C#N (stereo partly drawn) [Compound I-68],< 500 nM,,< 500 nM,< 500 nM,
COc1cc(O[C@H]2CC[C@H](NC(=O)c3ccc(N4CCC5(CCC(c6ccc(C7=N[C@@H](C)c8nnc(C)n8-c8sc(C)c(C)c87)cc6C)CC5)C4)nn3)CC2)ccc1C#N (stereo partly drawn) [Compound I-60],< 500 nM,,< 500 nM,< 500 nM,
"Cc1sc2c(c1C)C(c1ccc(C#CC3CC4(C3)CN(c3ccc(C(=O)N[C@H]5CC[C@H](Oc6ccc(C#N)c(OC(F)(F)F)c6)CC5)nn3)C4)cc1)=NC1(CC1)c1nnc(C)n1-2 [Compound I-7, N-[4-[4-cyano-3-(trifluoromethoxy)phenoxy]cyclohexyl]-6-[6-[2-[4-(4,5,13-trimethylspiro[3-thia-1,8,11,12-tetrazatricyclo[8.3.0.0^2,6]trideca-2 (6),4,7,10,12-pentaene-9,1′-cyclopropane]-7-yl)phenyl]ethynyl]-2-azaspiro[3.3]heptan-2-yl]pyridazine-3-carboxamide]",< 500 nM,,< 500 nM,< 500 nM,
"COC[C@@H]1N=C(c2ccc(C3CCC4(CC3)CCN(c3ccc(C(=O)NC5CCC(Oc6ccc(C#N)c(OC(F)(F)F)c6)CC5)nn3)C4)cc2)c2c(sc(C)c2C)-n2c(C)nnc21 (stereo partly drawn) [Compound I-2, N-[4-[4-cyano-3-(trifluoromethoxy)phenoxy]cyclohexyl]-6-[8-[4-[(9R)-9-(methoxymethyl)-4,5,13-trimethyl-3-thia-1,8,11,12-tetrazatricyclo[8.3.0.0^2,6]trideca-2 (6),4,7,10,12-pentaen-7-yl]phenyl]-2-azaspiro[4.5]decan-2-yl]pyridazine-3-carboxamide]",< 500 nM,,< 500 nM,< 500 nM,
COc1cc(O[C@H]2CC[C@H](NC(=O)c3ccc(N4CCC5(CCC(c6ccc(C7=N[C@@H](C)c8nnc(C)n8-c8sc(C)c(C)c87)cc6)C5)CC4)nn3)CC2)ccc1C#N (stereo partly drawn) [Compound I-21],,500 to 1500 nM,< 500 nM,,< 500 nM
"CC[C@@H]1N=C(c2ccc(C3CCC4(CC3)CCN(c3ccc(C(=O)NC5CCC(Oc6ccc(C#N)c(OC)c6)CC5)nn3)C4)cc2)c2c(sc(C)c2C)-n2c(C)nnc21 (stereo partly drawn) [Compound I-41, N-((1r,4r)-4-(4-cyano-3-methoxyphenoxy)cyclohexyl)-6-(8-(4-((S)-6-ethyl-2,3,9-trimethyl-6H-thieno[3,2-f][1,2,4]triazolo[4,3-a][1,4]diazepin-4-yl)phenyl)-2-azaspiro[4.5]decan-2-yl) pyridazine-3-carboxamide]",,< 500 nM,< 500 nM,,< 500 nM
